Laboratory results: publication PMC4809600, “The Influence of Chronic Wound Extracts on Inflammatory Cytokine and Histatin Stability” (PLoS ONE, 2016)
Where no end group is shown, it is not given here.

How the values were obtained:
[1] = Stability in chronic wound extracts (CWE), capillary zone electrophoresis; type: in vitro ADME, human; conditions: 37°C, CZE; for Percentage intact, CWE 2h / Percentage intact, CWE 4h / Percentage intact, CWE 8h / Percentage intact, CWE 16h / Percentage intact, CWE 24h / Percentage intact, CWE 48h / Percentage intact, CWE 72h / Percentage intact, CWE 96h: 1 mg/ml in PBS mixed 1:1 with CWE (1 mg/ml protein, pool of 5 donors) in PBS, UV 200 nm, ratio to imidazole
Procedure, shortened: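 Peptides or cytokines (1 mg/ml stock) mixed 1:1 with PBS or pooled chronic-wound extract (1 mg/ml protein, three pools of five donors), ±protease inhibitor cocktail, at 37 °C for up to 96 h. Analyzed by capillary zone electrophoresis (pH 2.5 phosphate, 200 nm), with peak ratio to imidazole standard relative to 0 h as % intact.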

[2] = Stability in CWE with protease inhibitor cocktail (PIC), capillary zone electrophoresis; type: in vitro ADME, human; conditions: 1 mg/ml in PBS mixed 1:1 with CWE (1 mg/ml protein, pool of 5 donors) in PBS containing PIC (final 1:140 v/v), 37°C, CZE, ratio to imidazole, 0 h = 100%
From the text: Debridement tissue was obtained from chronic ulcers of 15 patients with therapy resistant (arterio-venous) leg ulcers, according to procedures described earlier. In brief, moist, easily removable debridement material, essentially blood free, was collected from the ulcer surface and divided equally into two different solutions: (i) PBS (B. Braun, Melsungen, Germany), (ii) PBS with protease inhibitor cocktail (PIC) (1:100; v/v) (Sigma-Aldrich, Steinheim, Germany). The mixtures were gently shaken for 1 h at 4°C to elute proteins and centrifuged; the supernatants were stored at -80°C. Total protein content of the supernatant was measured using the BioRad Protein Assay (BioRad Laboratories, Hercules, California, USA) essentially as described by the supplier. Samples were diluted to 1 mg/ml protein and extracts of five different donors were pooled; three different pools of five donors were used in all experiments. The samples are referred to as chronic wound extracts (CWE).
To determine the stability of the different peptides in CWE, histatins and cytokines were dissolved in PBS at 1 mg/ml. Histatins and cytokines were incubated in a 1:1 ratio with (i) PBS, (ii) CWE in PBS, or (iii) CWE in PBS containing PIC, in a total volume of 25 μl. Imidazole (Sigma-Aldrich) was added as an internal standard, with a final concentration of 100 μg/ml. The mixtures were incubated at 37°C, and samples were taken at 0, 24, 48, 72 and 96 h. For histatins containing mixtures, additional samples were taken after 2, 4, 8 and 16 h of incubation.
The samples were analyzed with a BioFocus 2000 capillary zone electrophoresis system (Bio-Rad Laboratories, Hercules, CA, USA) equipped with an uncoated fused-silica capillary of internal diameter 50 μm and a length of 24 cm. Samples were loaded by pressure injection (5 psi/sec). Separation was performed at 10 kV (cathode at the detector side) at 20°C using 0.1 M phosphate buffer (pH 2.5) as electrolyte and monitored continuously at 200 nm. Peaks were quantified with the BioFocus Integrator software. In order to quantify the percentage of intact peptides remaining after incubation with CWE, the ratios of histatins, rhIL-6 or rhCXCL8 to internal standard was set at 100% at 0h, and the ratios at the other incubation time points were related to this.

Percentage intact, CWE 2h ([1]; 0 h = 100%, experiment 1 of 3): 83.2738% | Percentage intact, CWE 2h ([1]; 0 h = 100%, experiment 2 of 3): 87.1828% | Percentage intact, CWE 2h ([1]; 0 h = 100%, experiment 3 of 3): 86.6201% | Percentage intact, CWE 4h ([1]; 0 h = 100%, experiment 1 of 3): 58.4193% | Percentage intact, CWE 4h ([1]; 0 h = 100%, experiment 2 of 3): 76.5418% | Percentage intact, CWE 4h ([1]; 0 h = 100%, experiment 3 of 3): 73.9107% | Percentage intact, CWE 8h ([1]; 8 h, 0 h = 100%, experiment 1 of 3): 32.9227% | Percentage intact, CWE 8h ([1]; 8 h, 0 h = 100%, experiment 2 of 3): 52.8031% | Percentage intact, CWE 8h ([1]; 8 h, 0 h = 100%, experiment 3 of 3): 51.366% | Percentage intact, CWE 16h ([1]; 0 h = 100%, experiment 1 of 3): 8.0136% | Percentage intact, CWE 16h ([1]; 0 h = 100%, experiment 2 of 3): 20.767% | Percentage intact, CWE 16h ([1]; 0 h = 100%, experiment 3 of 3): 27.1396% | Percentage intact, CWE 24h ([1]; 24 h, 0 h = 100%, experiment 1 of 3): 1.592% | Percentage intact, CWE 24h ([1]; 24 h, 0 h = 100%, experiment 2 of 3): 7.881% | Percentage intact, CWE 24h ([1]; 24 h, 0 h = 100%, experiment 3 of 3): 13.5375% | Percentage intact, CWE 48h ([1]; 0 h = 100%, experiment 1 of 3): 0.0001% | Percentage intact, CWE 48h ([1]; 0 h = 100%, experiment 2 of 3): 0.0001% | Percentage intact, CWE 48h ([1]; 0 h = 100%, experiment 3 of 3): 0.0001% | Percentage intact, CWE 72h ([1]; 0 h = 100%, experiment 1 of 3): 0.0001% | Percentage intact, CWE 72h ([1]; 0 h = 100%, experiment 2 of 3): 0.0001% | Percentage intact, CWE 72h ([1]; 0 h = 100%, experiment 3 of 3): 0.0001% | Percentage intact, CWE 96h ([1]; 0 h = 100%, experiment 1 of 3): 0.0001% | Percentage intact, CWE 96h ([1]; 0 h = 100%, experiment 2 of 3): 0.0001% | Percentage intact, CWE 96h ([1]; 0 h = 100%, experiment 3 of 3): 0.0001% | remaining at 8 h, 0.5 mg/ml ([1]; human, chronic wound extracts (CWE), 1 mg/ml in PBS mixed 1:1 with CWE (1 mg/ml protein, pools of 5 donors), 8 h, 0 h = 100%, mean of 3 independent experiments, read-out: Original amount of peptide remaining intact after 8 h in CWE): 46% | remaining at 24 h, 0.5 mg/ml ([1]; human, chronic wound extracts (CWE), 1 mg/ml in PBS mixed 1:1 with CWE (1 mg/ml protein, pools of 5 donors), 24 h, 0 h = 100%, mean of 3 independent experiments, read-out: Original amount of peptide remaining intact after 24 h in CWE): 8% | metabolised at 8 h, 0.5 mg/ml ([1]; human, chronic wound extracts (CWE), incubation with chronic wound extracts, 8 h, read-out: Breakdown (degradation) in CWE in 8 h): ~50% | Percentage intact, CWE + PIC 2h ([2]; experiment 1 of 3): 91.8564% | Percentage intact, CWE + PIC 2h ([2]; experiment 2 of 3): 90.6434% | Percentage intact, CWE + PIC 2h ([2]; experiment 3 of 3): 99.1023% | Percentage intact, CWE + PIC 4h ([2]; experiment 1 of 3): 81.1086% | Percentage intact, CWE + PIC 4h ([2]; experiment 2 of 3): 81.649% | Percentage intact, CWE + PIC 4h ([2]; experiment 3 of 3): 84.0062% | Percentage intact, CWE + PIC 8h ([2]; experiment 1 of 3): 76.5843% | Percentage intact, CWE + PIC 8h ([2]; experiment 2 of 3): 75.4466% | Percentage intact, CWE + PIC 8h ([2]; experiment 3 of 3): 82.0587% | Percentage intact, CWE + PIC 16h ([2]; experiment 1 of 3): 72.2461% | Percentage intact, CWE + PIC 16h ([2]; experiment 2 of 3): 65.5164% | Percentage intact, CWE + PIC 16h ([2]; experiment 3 of 3): 70.9806% | Percentage intact, CWE + PIC 24h ([2]; experiment 1 of 3): 78.4236% | Percentage intact, CWE + PIC 24h ([2]; experiment 2 of 3): 69.711% | Percentage intact, CWE + PIC 24h ([2]; experiment 3 of 3): 68.9989% | Percentage intact, CWE + PIC 48h ([2]; experiment 1 of 3): 73.7424% | Percentage intact, CWE + PIC 48h ([2]; experiment 2 of 3): 59.1893%
Sequence: DSHEKRHHGYRRKFHEKHHSHREFPFYGDYGSNYLYDN [Hst1]
